In BindingDB's records for doi:10.1016/j.ejmech.2021.113607 (Institute of Medical Biology Pas, 2021):

Target: T1, Adenosine receptor A2b (Homo sapiens, UniProt P29275)
T1 sequence (P29275 whole entry): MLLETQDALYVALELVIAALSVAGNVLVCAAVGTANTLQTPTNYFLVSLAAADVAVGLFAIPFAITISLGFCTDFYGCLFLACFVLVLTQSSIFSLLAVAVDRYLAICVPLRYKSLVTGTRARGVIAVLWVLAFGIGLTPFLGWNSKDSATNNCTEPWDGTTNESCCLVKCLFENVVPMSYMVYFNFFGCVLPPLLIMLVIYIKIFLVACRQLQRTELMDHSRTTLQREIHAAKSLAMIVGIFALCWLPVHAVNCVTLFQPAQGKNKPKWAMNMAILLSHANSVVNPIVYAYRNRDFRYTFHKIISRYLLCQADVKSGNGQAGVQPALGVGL
Experiment: Displacement of [3H]DPCPX from human adenosine A2B receptor expressed in HEK cell membrane incubated for 30 mins by microplate beta scintillation counting based radioligand inhibition assay

For CCNC(=O)[C@H]1O[C@@H](n2cnc3c(NCCCCc4ccccc4)ncnc32)[C@H](O)[C@@H]1O, the Ki was 3.33 µM.
